Assay results taken from US6372792B1, “Method for treating anxiety, anxiety disorders and insomnia” (priority 1996, dated 2002).

Key:
Type in all cases: in vivo, human
[1] = test system: chronic severe generalized anxiety disorder with marked insomnia and depression; assay: Case History 1: patient treated with gabapentin; conditions: initiated at a low dose
Procedure: The patient is a retired patient. […] In their medical history, there is a cervical laminectomy (1988). They report residual pain and weakness in the right arm and right leg and chronic neck pain. They have a history of three months of depression with no treatment (1989) and a history of chronic severe generalized anxiety disorder.
In December 1994, the patient had been taking a benzodiazepine, clonazepam 2.5 mg/day, for the last five years when their anxiety and depression became much worse. Anxiety was associated with marked insomnia and significant situational stressors (financial and marital). […] Patient is now functional for the first time in many years. Improvement continues as of this day. […] Improvement persists.

[2] = test system: obsessive compulsive disorder (OCD), anxiety, paranoid delusions; assay: Case History 5: patient treated with gabapentin
Description: The patient is a single person who is still studying at University. Their medical history is unremarkable. The patient was first seen by a psychiatrist and followed for obsessive compulsive disorder (OCD) in the United Emirates; the patient tended toward isolativeness. Also, they developed a tic disorder and complained of anxiety.
In February 1994, the patient developed intense paranoid ideation and became more withdrawn. Over the previous two years, the patient had suffered from paranoid delusions and auditory hallucinations. They stopped taking their neuroleptic medication in mid-December while they were a University student. They were admitted as an inpatient in March 1994. […] The patient was discharged with clozapine and lorazepam. In June, the patient was referred for Follow-Up where an anticonvulsant drug, valproic acid was added to potentiate clozapine, but discontinued in August 1994.
In February 1995, gabapentin was added to the patient's treatment. […] Currently, the patient takes clozpine 125 mg BID, […], gabapentin 500 mg HS and procyclidine 5 mg BID.

[3] = test system: panic attacks and anxiety disorder; assay: Case History 3: patient treated with gabapentin; conditions: for adverse effect: human, in vivo
Procedure: A person is a single who is working as a freelance writer. […] They were hospitalized because of severe depression and a suicide attempt by drug overdose. The patient has taken lithium since 1973. They have also had panic attacks since 1978.
In January 1994, the patient was depressed and valproic acid was initiated with lithium and clonazepam. […] Gabapentin 300 mg BID up to 300 mg TID was initiated in their treatment.

[4] = test system: fast cycling manic depressive illness with anxiety associated with depression; assay: Case History 2: patient treated with gabapentin; conditions: June to December 1992
Procedure: A person is a retired patient with a family history of bipolar affective illness. The patient has been treated for manic-depressive illness since they experienced their first depressive episode and was hospitalized several times for mania and depression.
[…]), the patient was hospitalized for an episode of acute mania. After that, they were treated with lithium, tryptophan, nicotinamide, clonazepam, Premarin®, Provera® and Overal®. The patient was re-hospitalized for a manic episode […] (1982). They have been treated with various psychotropic drugs, especially: lithium, tryptophan, and clonazepam. Lithium was discontinued in October 1983 until 1985. They were given tryptophan, lecithin and female hormones for control of a severe rapid-cycling bipolar disorder. Fluoxetine, as well as, antiepileptics (carbamazepine and valproic acid) were also added to their treatment.
Due to the patient's fast cycling manic depressive illness, their medication is regularly adjusted. Since 1991 magnesium was added to their regular medication. […] In April 1993, risperidone was initiated and in March 1994 lithium was discontinued. They are currently treated with risperidone, gabapentin 1800 mg QD (initiated in August 1994), clonazepam and ritanserin was recently added to their treatment in an attempt to improve their mood. They also take magnesium and lecithin.

SMILES: CNCCC(Oc1ccc(C(F)(F)F)cc1)c1ccccc1 (stereo not drawn) [Fluoxetine]
- clinical response (anxiety and depression) [1]: made the patient worse

SMILES: NCC1(CC(=O)O)CCCCC1 [gabapentin, (1-aminomethyl)-1-cyclohexaneacetic acid]
- adverse effect ([2]; during the increase of gabapentin): dizziness during the increase of gabapentin but this subsided
- adverse effect [3]: the patient complained of sedation

SMILES: OC(CCN1CCCC1)(c1ccccc1)C1CCCCC1 (stereo not drawn) [procyclidine]
- akathisia ([2]; procyclidine 5 mg BID): they improved with this medication

SMILES: Cc1nc2n(c(=O)c1CCN1CCC(c3noc4cc(F)ccc34)CC1)CCCC2 [risperidone]
- psychotic symptoms (paranoid delusions, auditory hallucinations) ([2]; inpatient, March 1994): did not improve

SMILES: CN[C@H]1CC[C@@H](c2ccc(Cl)c(Cl)c2)c2ccccc21 [sertraline]
- clinical response (anxiety and depression) [1]: made the patient worse

SMILES: CCCC(CCC)C(=O)O [valproic acid]
- adverse effect [3]: they were losing their hair
- depression ([3]; initiated with lithium and clonazepam, two weeks later): the patient improved
- adverse effect [4]: the patient was losing hair
